This note sets out measurements from PubChem BioAssay (NCI).

Test in all cases: growth of human tumour cells (NCI), 48 h
The test system of assay [1] is NCI-H226 lung.
Assay [2] relates to HS 578T breast.
Assay [3] deals with CCRF-CEM leukemia.
Assay [4] relates to UACC-257 melanoma.
The subject of assay [5] is SK-MEL-28 melanoma.
For assay [6], the system named is U251 CNS.
In assay [7] the test system is SK-MEL-2 melanoma.
Assay [8] concerns K-562 leukemia.
In assay [9] the test system is LOX IMVI melanoma.
Assay [10] relates to SK-OV-3 ovarian.
In assay [11] the test system is OVCAR-4 ovarian.
The test system of assay [12] is MALME-3M melanoma.
In assay [13] the test system is SNB-19 CNS.
For assay [14], the system named is BT-549 breast.

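All cell lines were grown in 96-well plates and treated with compound for 48 hours. TGI: total growth inhibition.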 Bounds are passed on as bounds.

As for `CCOC(=O)C1Cc2ccc(C)cc2C1=O` (stereo not drawn), the TGI in assay [1], in assay [2], in [3], in [4], in assay [5] and in assay [6] was more than 100 µM in each case. The TGI in assay [7], in assay [8], in assay [9], in assay [10], in [11] and in [12] was more than 100 µM in each case.

On to `CCCCCCCCC#CCCCCCCC(F)C(=O)O` (stereo not drawn), for which the TGI in assay [1], in [13], in assay [2], in assay [3], in [4] and in assay [5] was more than 100 µM in each case. The TGI in assay [6], in assay [7], in [8], in [9], in assay [10] and in assay [11] was more than 100 µM in each case. The TGI in assay [12] is more than 100 µM.

In the case of `COc1cccc(C2c3cc4c(cc3OC(N3CCCC3)C2c2ccccc2)OCO4)c1O` (stereo not drawn), the TGI in assay [13] came to 27.7 µM; in [2] it was 8.53 µM; in assay [3], 24.6 µM; in assay [4], 24.4 µM; in assay [5], 28.1 µM; in assay [7], 27.9 µM. For the same compound, the TGI stood at 42.6 µM in [8] and 46.2 µM in assay [9].

For `CCC(=O)NC(NNS(=O)(=O)c1ccc(C)cc1)(C(F)(F)F)C(F)(F)F`, the TGI was more than 100 µM in assay [1]; more than 100 µM in assay [13]; more than 100 µM in assay [2]; more than 100 µM in assay [3]; more than 100 µM in [4]; 61.5 µM in assay [5]. In addition, the TGI in [6] was more than 10 µM; in [7], more than 100 µM; in assay [8], more than 100 µM; in assay [9], more than 100 µM; in assay [10], more than 100 µM; in [12], more than 100 µM. This compound also came in with a TGI in [14] of 91.8 µM.

For the compound `CC(C)CC1C(=O)OC(C)(C)OC1=O`, the TGI in [1], in [13], in [2], in [3], in [4] and in assay [5] was more than 100 µM each time. The TGI in [6], in assay [7], in [8], in [9], in assay [10] and in assay [11] was more than 100 µM throughout. For the same compound, the TGI in assay [14] is more than 100 µM.

For `O=C1/C(=C/c2ccc([N+](=O)[O-])cc2)Oc2cc(O)ccc21`, the TGI in assay [1] was 99.1 µM; in assay [13] it was more than 100 µM; in [2] it was 47.9 µM; in assay [3] it was 79.2 µM; in assay [4], more than 100 µM; in assay [5] it was more than 100 µM. Besides, the TGI in [6] was 93 µM; in assay [8], 46.9 µM; in [10], 71.6 µM; in [11] it was more than 100 µM; in assay [14], 78.7 µM.

Take `CN(C)Cc1cc(C(=O)/C=C/c2ccc(Cl)cc2Cl)cc(CN(C)C)c1O`: the TGI in assay [1] turned out to be 24 µM; in [13] it was 19.9 µM; in [2], 15.8 µM; in assay [3], 8.88 µM; in assay [4], 17.6 µM; in assay [5] it was 19.1 µM. For the same compound, the TGI worked out at 15.7 µM in [6]; 5.29 µM in assay [8]; 2.49 µM in assay [9]; 13.1 µM in assay [11]; 23.5 µM in assay [12].

Regarding `O=C(O)CNc1ncc2c(n1)-c1ccccc1OC2`, the TGI in [13], in [2], in assay [3], in assay [4], in [5] and in assay [6] was more than 100 µM each time. Besides, the TGI in assay [7], in assay [8], in assay [9], in assay [10], in assay [11] and in assay [12] was more than 100 µM in each case.

For the compound `CC(=O)/C=C1/C(=O)C(CC(C)C)=C1CC(C)C`, the TGI in assay [1], in assay [13], in [2], in assay [3], in [4] and in assay [5] was more than 100 µM each time. In addition, the TGI in [6], in assay [7], in assay [9], in [10], in [11] and in [12] was more than 100 µM throughout.

In the case of `N#Cc1ccc(N=NN2CCCC2)cc1`, the TGI in assay [1], in [13], in [2], in [3], in [4] and in [6] was more than 100 µM each time. Also, the TGI in [7], in [8], in assay [9], in assay [10], in [11] and in [14] was more than 100 µM throughout.

For `O=C(O)c1cc(-c2ccc3cc(O)c(O)cc3c2)ccc1O`, the TGI in assay [1], in assay [13], in [2], in assay [3], in [4] and in [5] was more than 12.5 µM throughout. In addition, the TGI in [6], in assay [7], in assay [8], in assay [10], in [12] and in [14] was more than 12.5 µM throughout.

On to `Cc1ccc(C(=O)c2[nH]c(NCc3ccccc3)c(C(=S)Nc3ccccc3)c2N)cc1`, for which the TGI turned out to be 32.3 µM in [1]; 29.1 µM in assay [13]; 28.9 µM in assay [3]; 18.4 µM in [4]; 9.97 µM in [5]; 15.6 µM in assay [6]. Besides, the TGI in assay [7] was found to be 22.8 µM; in [8], 5.11 µM; in assay [9] it was 3.97 µM; in assay [10] it was 8.04 µM; in assay [11], 12.5 µM; in assay [14] it was 20.3 µM.

Take `CCOC(=O)C1=C(C)N(Cc2ccccc2)C2(O)C=CC(=O)C3C(=O)N(c4ccccc4)C(=O)C132` (stereo not drawn): the TGI in assay [1] worked out at 5.7 µM; in assay [13], 21.4 µM; in assay [2] it was 34 µM; in assay [3], 5.51 µM; in assay [4], 7.59 µM; in assay [5] it was 3.54 µM. The TGI in assay [6] came out at 11.8 µM; in assay [7], 3.98 µM; in [8], 27.3 µM; in assay [9], 3.43 µM; in [10], 19.3 µM; in [11], 6.45 µM. The compound further came in with a TGI in assay [12] of 7.68 µM.

Regarding `Cc1cc(O)c(C(O)c2ccccn2)cc1O` (stereo not drawn), the TGI was more than 100 µM in assay [13]; more than 100 µM in [2]; 38.4 µM in assay [3]; 33.5 µM in assay [5]; more than 100 µM in [6]; more than 100 µM in [8]. In addition, the values for the TGI in assay [9] and in [12] were 30.8 µM and 40.1 µM, respectively.

On to `CN(C)/C=N/S(=O)(=O)c1nn2c(C=O)c(-c3ccc(-c4ccccc4)cc3)nc2s1`, for which the TGI turned out to be 32.4 µM in assay [1]; 25.5 µM in assay [13]; 0.647 µM in assay [3]; 9.31 µM in [4]; 4.33 µM in assay [5]; 3.17 µM in assay [6]. The TGI in assay [7] was 8.24 µM; in [9] it was 2.76 µM; in assay [10] it was 36.2 µM; in [11] it was 4.24 µM; in assay [12], 2.71 µM; in assay [14], 3.05 µM.

Turning to `c1ccc(CSCCC(SCc2ccccc2)SCc2ccccc2)cc1`, the TGI in assay [1], in assay [13], in assay [2], in [3], in assay [4] and in assay [5] was more than 10 µM throughout. The TGI in [6], in assay [7], in assay [8], in assay [9], in assay [10] and in assay [11] was more than 10 µM in each case. This compound displayed a TGI in assay [12] of more than 10 µM.

Regarding `COC(=O)C1=CCC[C@H]2[C@@]1(COC(C)=O)CC[C@@H](C)[C@]2(C)CC(=O)c1ccoc1`, the TGI in assay [1] is more than 50 µM; in assay [13], more than 50 µM; in [2], more than 50 µM; in assay [3], 25.3 µM; in assay [4], more than 50 µM; in [6], more than 50 µM. Further, the TGI in assay [7] was more than 50 µM; in assay [9] it was 24.7 µM; in assay [10] it was more than 50 µM; in assay [11] it was more than 50 µM; in assay [14] it was 31.3 µM.

Take `c1ccc(Nc2nnc(-c3ccccc3Nc3ccccc3-c3nnc(Nc4ccccc4)s3)s2)cc1`: the TGI in assay [1], in [13], in assay [3], in assay [4], in assay [5] and in assay [6] was more than 100 µM throughout. Also, the TGI in assay [7], in assay [8], in assay [9], in assay [11], in assay [12] and in assay [14] was more than 100 µM in each case.

With `COc1ccc(C(=O)c2[nH]c(Nc3cc(C)ccn3)c(C(=S)Nc3ccccc3)c2N)cc1`, the TGI was 47.3 µM in [1]; 56 µM in [13]; 32.7 µM in assay [4]; 34 µM in assay [5]; 36.4 µM in assay [6]; 24.2 µM in assay [7]. Moreover, the TGI in assay [8] was more than 100 µM; in assay [9], 42.2 µM; in [10], 47 µM; in assay [11], 36.5 µM; in [12] it was 30.8 µM; in assay [14], 42.5 µM.

Turning to `CCN1C(c2ccccc2)=CC(c2ccccc2)(C(Cl)(Cl)Cl)C=C1c1ccccc1`, the TGI in assay [1] was more than 100 µM; in [13] it was more than 100 µM; in assay [2], more than 100 µM; in [3], more than 100 µM; in assay [4], more than 100 µM; in [5] it was 67 µM. The TGI was more than 100 µM in [6]; more than 100 µM in assay [8]; 56.7 µM in assay [9]; more than 100 µM in assay [11]; 24 µM in [12].

In the case of `CC1=NN(c2nc(N)nc(CCl)n2)C(C)(C)C1`, the TGI in assay [1] was more than 100 µM; in [13] it was more than 100 µM; in assay [2], more than 100 µM; in assay [3] it was more than 52.7 µM; in assay [4] it was more than 100 µM; in [5], more than 75.8 µM. The TGI in assay [6] was more than 63.3 µM; in assay [7], more than 100 µM; in assay [8], more than 69.5 µM; in assay [9], 3.35 µM; in assay [10], more than 100 µM; in assay [11], 27 µM. The compound also had a TGI in [14] of more than 82.5 µM.

Turning to `CC1(C)COC(c2cccc(C(=O)c3ccccc3)c2)=N1`, the TGI in assay [13], in assay [3], in [4], in assay [5], in assay [6] and in [7] was more than 100 µM in each case. The TGI in assay [8], in assay [9], in [10], in assay [11] and in [12] was more than 100 µM each time.

Consider `CN1CC[C@@]2(c3cccc(O)c3)CC(=O)/C(=C/c3ccc(Cl)c(Cl)c3)[C@H]1C2`, for which the TGI was 12.5 µM in assay [13]; 7.19 µM in [2]; more than 100 µM in assay [3]; 12.6 µM in assay [4]; 4.65 µM in assay [5]; 2.67 µM in assay [6]. Moreover, the TGI in assay [8] turned out to be 3.66 µM; in [9], 2.81 µM; in [11] it was 17.2 µM; in assay [12] it was 13.1 µM; in assay [14], 4.33 µM.
